# Data from patent US20020091095A1, “Modulation of Fas and FasL expression” (priority 1999, published 2002).
# Assays:
# Format in all cases: cell-based, human
# Fas [1] = assay: Fas expression at the cell surface by flow cytometry, PBMCs; conditions: 100 μg/ml sequence, 48 h, treated vs control cells
# Method: (§1) Peripheral blood mononuclear cells (hereinafter, “PBMCs”) were isolated from human blood by Ficoll-Hypaque (Amersham Pharmacia Biotech, Baie d'Urfée, Québec, Canada) density gradient centrifugation.
# (§2) Cancer cells and PBMCs were seeded in 6 well flat-bottom microplates and were maintained at 37° C. in a 5% CO2 atmosphere. Unless stated otherwise, 2×10^5 cells/ml were incubated for 48 h with 0 μg/ml (control) or 100 μg/ml ([…]) (treated) of the sequences.
# (§3) Fas and FasL expression were measured by flow cytometry using anti-Fas FITC-conjugated monoclonal antibodies and anti-FasL PE-conjugated monoclonal antibodies in a FACScalibur Flow Cytometer (Becton Dickinson, San Jose, Calif., USA) using the CELLQuest program (Becton Dickinson).
# (§4) Results are expressed as percentage (%) increase in the expression of Fas and of FasL measured on treated cells compared to control cells.
# FasL = FasL expression at the cell surface by flow cytometry, PBMCs; conditions: 100 μg/ml sequence, 48 h, treated vs control cells
# Method: as §1, §2, §3, §4
# Fas [2] = assay: Fas expression at the cell surface by flow cytometry, UMUC-3 cells; conditions: UMUC-3 bladder cancer cells, 100 μg/ml sequence, 48 h, treated vs control cells
# Method: as §2, §3, §4
# UMUC-3 bladder cancer cells are a P-glycoprotein overexpressing human cell line.
# Fas [3] = assay: Inhibition of Fas expression on Jurkat cells by cycloheximide; conditions: for % INCREASE of Fas: Jurkat cells
# Method: as §3, §4
# Jurkat human leukemia T cells were pre-incubated with 0.0 μg/ml (−CHX) or with 0.1 μg/ml of cycloheximide (+CHX) for 1 h. Ten μg/ml or 100 μg/ml of 6 base SEQ ID NO:5 (GGGTGG) was added to both the −CHX and +CHX cells and the incubation was continued for 24 hours and for 48 hours (Table 10).
# [4] = test system: UMUC-3 bladder cancer cells; assay: Inhibition of UMUC-3 bladder cancer cell proliferation (MTT reduction); conditions: for % INHIBITION of cell proliferation: UMUC-3, 48 h
# Method: (§5) UMUC-3 bladder cancer cells were incubated for 48 hours with 0.00, 0.02 and 0.20 μg/ml of agonistic anti-Fas monoclonal antibodies (clone CH-11: Coulter-Immunotech, Marseille, France) +0 or 10 μg/ml of SEQ ID NO:5. Cell proliferation was measured using dimethylthiazol-diphenyltetrazolium (MTT) reduction (Mosman et al. J. Immunol. Methods 65:55, 1983). MTT was measured at a wavelength of 570 nm using a multiplate spectrophotometer reader (ELX800, Bio-TEK Instruments Inc., Winooski, Vt.).
# Jurkat T leukemia cells = assay: Inhibition of Jurkat leukemia T cell proliferation (MTT reduction); conditions: for % INHIBITION of cell proliferation: Jurkat, 48 h
# Method: as §5
# Jurkat T leukemia cells were incubated for 48 hours with 0.00, 0.02 and 0.20 μg/ml of agonistic anti-Fas monoclonal antibodies (clone CH-11) +0 and 10 μg/ml of SEQ ID NO:5. Cell proliferation was measured as in Example 13.
# [5] = 10 μg/ml sequence + anti-Fas antibodies 0.02 μg/ml
# [6] = 10 μg/ml sequence, anti-Fas antibodies 0.0 μg/ml
sequence,measurement,setting,value
GGGTGG [SEQ ID NO:5],% INCREASE Fas,Fas [1],3%
same,% INCREASE FasL,FasL,−20%
same,% INCREASE Fas,Fas [2],67%
same,Fas expression,"Fas [3]; Jurkat T cells, 10 or 100 μg/ml, 24 h and 48 h",upregulated Fas expression
same,% INCREASE of Fas,"Fas [3]; 10 μg/ml sequence, 24 h, +CHX (0.1 μg/ml cycloheximide)",5%
same,% INCREASE of Fas,"Fas [3]; 10 μg/ml sequence, 24 h, −CHX",63%
same,% INCREASE of Fas,"Fas [3]; 10 μg/ml sequence, 48 h, +CHX (0.1 μg/ml cycloheximide)",51%
same,% INCREASE of Fas,"Fas [3]; 10 μg/ml sequence, 48 h, −CHX",91%
same,% INCREASE of Fas,"Fas [3]; 100 μg/ml sequence, 24 h, +CHX (0.1 μg/ml cycloheximide)",22%
same,% INCREASE of Fas,"Fas [3]; 100 μg/ml sequence, 24 h, −CHX",62%
same,% INCREASE of Fas,"Fas [3]; 100 μg/ml sequence, 48 h, +CHX (0.1 μg/ml cycloheximide)",115%
same,% INCREASE of Fas,"Fas [3]; 100 μg/ml sequence, 48 h, −CHX",150%
same,effect on the inhibitory activity of agonistic anti-Fas antibodies on cell proliferation,"[4]; UMUC-3, 0.02 and 0.2 μg/ml anti-Fas antibodies, 10 μg/ml sequence",potentiated
same,% INHIBITION of cell proliferation,[4]; [5],38%
same,% INHIBITION of cell proliferation,[4]; 10 μg/ml sequence + anti-Fas antibodies 0.02 μg/ml (third column),44%
same,% INHIBITION of cell proliferation,[4]; [6],23%
same,combined effect with agonistic anti-Fas antibodies on cell proliferation,"Jurkat T leukemia cells; Jurkat T cells, 0.02 and 0.2 μg/ml anti-Fas antibodies, 10 μg/ml sequence",additive
same,% INHIBITION of cell proliferation,Jurkat T leukemia cells; [5],28%
same,% INHIBITION of cell proliferation,Jurkat T leukemia cells; 10 μg/ml sequence + anti-Fas antibodies 0.2 μg/ml,48%
same,% INHIBITION of cell proliferation,Jurkat T leukemia cells; [6],16%
